Data taken from ChEMBL document CHEMBL4014340, “Identification of a Potent, Selective, and Efficacious Phosphatidylinositol 3-Kinase δ (PI3Kδ) Inhibitor for the Treatment of Immunological Disorders” (J Med Chem, 2017).

Tests used:
[1] = Metabolic stability in human liver microsomes assessed as parent compound remaining at 0.5 uM preincubated for 6 mins followed by NADPH addition measured after 10 mins by LC-MS/MS analysis; assay type: ADME, microsome; conditions: read-out: Stability
[2] = Metabolic stability in rat liver microsomes assessed as parent compound remaining at 0.5 uM preincubated for 6 mins followed by NADPH addition measured after 10 mins by LC-MS/MS analysis; assay type: ADME, microsome; conditions: read-out: Stability
[3] = Metabolic stability in mouse liver microsomes assessed as parent compound remaining at 0.5 uM preincubated for 6 mins followed by NADPH addition measured after 10 mins by LC-MS/MS analysis; assay type: ADME, microsome; conditions: read-out: Stability
[4] = Cmax in Balb/c mouse at 10 mg/kg, po; assay type: ADME, organism-based; parameters: dose 10 mg/kg, route oral; conditions: in vivo
[5] = AUC (0 to 24 hrs) in Balb/c mouse at 10 mg/kg, po; assay type: ADME, organism-based; parameters: time < 24 hr, dose 10 mg/kg, route oral; conditions: in vivo

SMILES	remaining at 10 min, 0.5 µM [1] [%]	remaining at 10 min, 0.5 µM [2] [%]	remaining at 10 min, 0.5 µM [3] [%]	Cmax [4] [nM]	AUC(0-t) at 24 h [5] [µM·h]
CC(=O)N1CCN(c2cc(-c3cc(Cl)c4c(N)ncnn34)ccc2S(C)(=O)=O)C(=O)C1(C)C	100	100	84		
CC(=O)N1CCN(c2cccc(-c3cc(Cl)c4c(N)ncnn34)c2C)C(=O)C1(C)C	84	19	1		
COc1ccc(-c2cc(Cl)c3c(N)ncnn23)cc1N1CCN(C(C)=O)C(C)(C)C1=O	94	91	94		
CC(=O)N1CCN(c2cccc(-c3cc(-c4cnn(C5CC5)c4)c4c(N)ncnn34)c2)C(=O)C1(C)C				470	1.1
CC(=O)N1CCN(c2cc(-c3cc(Cl)c4c(N)ncnn34)ccc2Cl)C(=O)C1(C)C	85	52	67		
CC(=O)N1C[C@@H](C)N(c2cc(-c3cc(C(F)(F)F)c4c(N)ncnn34)ccc2C#N)C(=O)C1(C)C	90	43	23		
CC(=O)N1C[C@H](C)N(c2cc(-c3cc(Cl)c4c(N)ncnn34)ccc2C#N)C(=O)C1(C)C	99	94	85		
CC(=O)N1CCN(c2cc(-c3cc(Cl)c4c(N)ncnn34)ccc2C#N)C(=O)C1(C)C	90	89	89		
CC(=O)N1C[C@H](C)N(c2cc(-c3cc(C(F)(F)F)c4c(N)ncnn34)ccc2C#N)C(=O)C1(C)C	89	91	100		
CC(=O)N1C[C@@H](C)N(c2cc(-c3cc(Cl)c4c(N)ncnn34)ccc2C#N)C(=O)C1(C)C	82	59	22		
CC(=O)N1CCN(c2cc(-c3cc(Cl)c4c(N)ncnn34)ccc2C(F)(F)F)C(=O)C1(C)C	95	87	88		
CC(=O)N1CCN(c2cc(-c3cc(C(F)(F)F)c4c(N)ncnn34)ccc2C(C)O)C(=O)C1(C)C (racemic)	100	100	100		
